Experimental data from the supplement of paper PMC10307832.

Experiments:
Test in all cases: relative viability (nuclei count vs DMSO), 5 days (fraction); higher = more cells survive
HCC-78 = test system: HCC-78
Summary of the method: (§1)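 For relative viability, nuclei counts in treated wells were divided by those in vehicle wells. Lung cancer cell lines had been pin-tool dosed in 1536-well plates the day after seeding and cultured for 5 days, then fixed and stained in one step (final 0.05% Triton X-100, 1% formaldehyde, 1 ug/ml Hoechst) and imaged at 4×. Doses were one drug alone or a fixed anchor-drug dose plus five library-drug doses (not always all listed) in √10 steps, and values are duplicate-plate medians.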

COR-L 105 = test system: COR-L 105
Summary of the method: as §1

NCI-H1437 = test system: NCI-H1437
Summary of the method: as §1

SK-LU-1 = test system: SK-LU-1
Summary of the method: as §1

LOU-NH91 = test system: LOU-NH91
Summary of the method: as §1

NCI-H1734 = test system: NCI-H1734
Summary of the method: as §1

NCI-H358 = test system: NCI-H358
Summary of the method: as §1

EKVX = test system: EKVX
Summary of the method: as §1

NCI-H522 = test system: NCI-H522
Summary of the method: as §1

NCI-H2085 = test system: NCI-H2085
Summary of the method: as §1

LK-2 = test system: LK-2
Summary of the method: as §1

SW 900 = test system: SW 900
Summary of the method: as §1

NCI-H1792 = test system: NCI-H1792
Summary of the method: as §1

NCI-H1648 = test system: NCI-H1648
Summary of the method: as §1

BEN = test system: BEN
Summary of the method: as §1

HCC-827 = test system: HCC-827
Summary of the method: as §1

EPLC-272H = test system: EPLC-272H
Summary of the method: as §1

LU99A = test system: LU99A
Summary of the method: as §1

UMC-11 = test system: UMC-11
Summary of the method: as §1

NCI-H1650 = test system: NCI-H1650
Summary of the method: as §1

EMC-BAC-2 = test system: EMC-BAC-2
Summary of the method: as §1

NCI-H647 = test system: NCI-H647
Summary of the method: as §1

NCI-H2023 = test system: NCI-H2023
Summary of the method: as §1

NCI-H650 = test system: NCI-H650
Summary of the method: as §1

Q: How did the relative viability (HCC-78; first compound 0.08 µM) turn out when `C=C1C(=O)O[C@@H](CCCCCCCC)[C@@H]1C(=O)O` [C-75] + Nc1nc2[nH]cc(CCc3ccc(C(=O)N[C@@H](CCC(=O)O)C(=O)O)cc3)c2c(=O)[nH]1 [Pemetrexed] (partner 0.2 µM) was run?
A: 0.829

Q: And the relative viability (HCC-78; first compound 0.253 µM)?
A: 0.902

Q: What about the relative viability (HCC-78; first compound 0.8 µM) of the same compound?
A: 0.839

Q: What about the relative viability (HCC-78; first compound 8 µM) of the same compound?
A: 0.893

Q: And the relative viability (COR-L 105; first compound 0.08 µM)?
A: 1.14

Q: And the relative viability (COR-L 105; first compound 0.253 µM)?
A: 1.07

Q: And the relative viability (COR-L 105; first compound 0.8 µM)?
A: 1.07

Q: And the relative viability (COR-L 105; first compound 2.53 µM)?
A: 1.24

Q: And the relative viability (COR-L 105; first compound 8 µM)?
A: 0.96

Q: What about the relative viability (NCI-H1437; first compound 0.08 µM) of the same compound?
A: 0.314

Q: What about the relative viability (NCI-H1437; first compound 0.253 µM) of the same compound?
A: 0.324

Q: And the relative viability (NCI-H1437; first compound 0.8 µM)?
A: 0.321

Q: And the relative viability (NCI-H1437; first compound 8 µM)?
A: 0.269

Q: What about the relative viability (SK-LU-1; first compound 0.08 µM) of the same compound?
A: 0.984

Q: And the relative viability (SK-LU-1; first compound 0.253 µM)?
A: 0.87

Q: And the relative viability (SK-LU-1; first compound 0.8 µM)?
A: 0.845

Q: And the relative viability (SK-LU-1; first compound 2.53 µM)?
A: 0.866

Q: And the relative viability (SK-LU-1; first compound 8 µM)?
A: 0.746

Q: And the relative viability (LOU-NH91; first compound 0.08 µM)?
A: 0.308

Q: And the relative viability (LOU-NH91; first compound 0.253 µM)?
A: 0.362

Q: And the relative viability (LOU-NH91; first compound 0.8 µM)?
A: 0.386

Q: What about the relative viability (LOU-NH91; first compound 8 µM) of the same compound?
A: 0.378

Q: And the relative viability (NCI-H1734; first compound 0.08 µM)?
A: 0.382

Q: And the relative viability (NCI-H1734; first compound 0.253 µM)?
A: 0.396

Q: What about the relative viability (NCI-H1734; first compound 0.8 µM) of the same compound?
A: 0.41

Q: What about the relative viability (NCI-H1734; first compound 2.53 µM) of the same compound?
A: 0.359

Q: What about the relative viability (NCI-H1734; first compound 8 µM) of the same compound?
A: 0.361

Q: What about the relative viability (NCI-H358; first compound 0.08 µM) of the same compound?
A: 0.169

Q: And the relative viability (NCI-H358; first compound 0.253 µM)?
A: 0.185

Q: What about the relative viability (NCI-H358; first compound 0.8 µM) of the same compound?
A: 0.168

Q: What about the relative viability (NCI-H358; first compound 8 µM) of the same compound?
A: 0.189

Q: And the relative viability (EKVX; first compound 0.08 µM)?
A: 0.45

Q: And the relative viability (EKVX; first compound 0.253 µM)?
A: 0.491

Q: And the relative viability (EKVX; first compound 0.8 µM)?
A: 0.366

Q: And the relative viability (EKVX; first compound 8 µM)?
A: 0.358

Q: What about the relative viability (NCI-H522; first compound 0.08 µM) of the same compound?
A: 1.02

Q: What about the relative viability (NCI-H522; first compound 0.253 µM) of the same compound?
A: 0.76

Q: What about the relative viability (NCI-H522; first compound 0.8 µM) of the same compound?
A: 0.828

Q: And the relative viability (NCI-H522; first compound 2.53 µM)?
A: 0.869

Q: What about the relative viability (NCI-H522; first compound 8 µM) of the same compound?
A: 0.879

Q: What about the relative viability (NCI-H2085; first compound 0.08 µM) of the same compound?
A: 0.875

Q: What about the relative viability (NCI-H2085; first compound 0.253 µM) of the same compound?
A: 0.738

Q: And the relative viability (NCI-H2085; first compound 0.8 µM)?
A: 0.857

Q: And the relative viability (NCI-H2085; first compound 2.53 µM)?
A: 0.788

Q: And the relative viability (NCI-H2085; first compound 8 µM)?
A: 0.902

Q: What about the relative viability (LK-2; first compound 0.08 µM) of the same compound?
A: 0.214

Q: What about the relative viability (LK-2; first compound 0.253 µM) of the same compound?
A: 0.301

Q: And the relative viability (LK-2; first compound 0.8 µM)?
A: 0.215

Q: And the relative viability (LK-2; first compound 2.53 µM)?
A: 0.2

Q: What about the relative viability (LK-2; first compound 8 µM) of the same compound?
A: 0.246

Q: And the relative viability (SW 900; first compound 0.08 µM)?
A: 0.446

Q: And the relative viability (SW 900; first compound 0.253 µM)?
A: 0.462

Q: And the relative viability (SW 900; first compound 0.8 µM)?
A: 0.479

Q: What about the relative viability (SW 900; first compound 2.53 µM) of the same compound?
A: 0.301

Q: And the relative viability (SW 900; first compound 8 µM)?
A: 0.454

Q: What about the relative viability (NCI-H1792; first compound 0.08 µM) of the same compound?
A: 0.816

Q: And the relative viability (NCI-H1792; first compound 0.253 µM)?
A: 0.92

Q: And the relative viability (NCI-H1792; first compound 0.8 µM)?
A: 0.882

Q: What about the relative viability (NCI-H1792; first compound 2.53 µM) of the same compound?
A: 0.481

Q: And the relative viability (NCI-H1792; first compound 8 µM)?
A: 0.678

Q: What about the relative viability (NCI-H1648; first compound 0.08 µM) of the same compound?
A: 0.731

Q: And the relative viability (NCI-H1648; first compound 0.253 µM)?
A: 1.01

Q: What about the relative viability (NCI-H1648; first compound 0.8 µM) of the same compound?
A: 0.681

Q: And the relative viability (NCI-H1648; first compound 8 µM)?
A: 0.606

Q: What about the relative viability (BEN; first compound 0.08 µM) of the same compound?
A: 0.753

Q: And the relative viability (BEN; first compound 0.253 µM)?
A: 0.816

Q: And the relative viability (BEN; first compound 0.8 µM)?
A: 0.688

Q: What about the relative viability (BEN; first compound 2.53 µM) of the same compound?
A: 0.842

Q: And the relative viability (BEN; first compound 8 µM)?
A: 0.766

Q: And the relative viability (HCC-827; first compound 0.253 µM)?
A: 0.271

Q: What about the relative viability (HCC-827; first compound 0.8 µM) of the same compound?
A: 0.279

Q: What about the relative viability (HCC-827; first compound 8 µM) of the same compound?
A: 0.287

Q: What about the relative viability (EPLC-272H; first compound 0.08 µM) of the same compound?
A: 0.313

Q: What about the relative viability (EPLC-272H; first compound 0.253 µM) of the same compound?
A: 0.267

Q: What about the relative viability (EPLC-272H; first compound 0.8 µM) of the same compound?
A: 0.329

Q: And the relative viability (EPLC-272H; first compound 2.53 µM)?
A: 0.202

Q: What about the relative viability (EPLC-272H; first compound 8 µM) of the same compound?
A: 0.24

Q: And the relative viability (LU99A; first compound 0.08 µM)?
A: 0.191

Q: And the relative viability (LU99A; first compound 0.253 µM)?
A: 0.212

Q: What about the relative viability (LU99A; first compound 0.8 µM) of the same compound?
A: 0.195

Q: And the relative viability (LU99A; first compound 2.53 µM)?
A: 0.19

Q: What about the relative viability (LU99A; first compound 8 µM) of the same compound?
A: 0.21

Q: What about the relative viability (UMC-11; first compound 0.08 µM) of the same compound?
A: 0.77

Q: What about the relative viability (UMC-11; first compound 0.253 µM) of the same compound?
A: 0.883

Q: And the relative viability (UMC-11; first compound 0.8 µM)?
A: 0.725

Q: And the relative viability (UMC-11; first compound 2.53 µM)?
A: 0.625

Q: What about the relative viability (UMC-11; first compound 8 µM) of the same compound?
A: 0.576

Q: What about the relative viability (NCI-H1650; first compound 0.08 µM) of the same compound?
A: 0.365

Q: And the relative viability (NCI-H1650; first compound 0.253 µM)?
A: 0.401

Q: What about the relative viability (NCI-H1650; first compound 0.8 µM) of the same compound?
A: 0.384

Q: What about the relative viability (NCI-H1650; first compound 8 µM) of the same compound?
A: 0.372

Q: And the relative viability (EMC-BAC-2; first compound 0.08 µM)?
A: 0.438

Q: And the relative viability (EMC-BAC-2; first compound 0.253 µM)?
A: 0.432

Q: And the relative viability (EMC-BAC-2; first compound 0.8 µM)?
A: 0.469

Q: What about the relative viability (EMC-BAC-2; first compound 2.53 µM) of the same compound?
A: 0.328

Q: And the relative viability (EMC-BAC-2; first compound 8 µM)?
A: 0.426

Q: And the relative viability (NCI-H647; first compound 0.08 µM)?
A: 0.181

Q: What about the relative viability (NCI-H647; first compound 0.253 µM) of the same compound?
A: 0.186

Q: And the relative viability (NCI-H647; first compound 0.8 µM)?
A: 0.167

Q: And the relative viability (NCI-H647; first compound 2.53 µM)?
A: 0.171

Q: And the relative viability (NCI-H647; first compound 8 µM)?
A: 0.128

Q: And the relative viability (NCI-H2023; first compound 0.08 µM)?
A: 0.246

Q: And the relative viability (NCI-H2023; first compound 0.253 µM)?
A: 0.265

Q: And the relative viability (NCI-H2023; first compound 0.8 µM)?
A: 0.242

Q: And the relative viability (NCI-H2023; first compound 2.53 µM)?
A: 0.171

Q: And the relative viability (NCI-H2023; first compound 8 µM)?
A: 0.21

Q: And the relative viability (NCI-H650; first compound 0.08 µM)?
A: 1.28

Q: And the relative viability (NCI-H650; first compound 0.253 µM)?
A: 0.888

Q: And the relative viability (NCI-H650; first compound 0.8 µM)?
A: 0.857

Q: And the relative viability (NCI-H650; first compound 2.53 µM)?
A: 0.823

Q: And the relative viability (NCI-H650; first compound 8 µM)?
A: 0.882
